From PMC3848040 (Science (New York, N.Y.), 2013) come the findings set out here.

In one assay the target is T1, GTDC2dTM (Homo sapiens, UniProt Q8NAT1).
T1 sequence (Q8NAT1 26-580 limits assumed): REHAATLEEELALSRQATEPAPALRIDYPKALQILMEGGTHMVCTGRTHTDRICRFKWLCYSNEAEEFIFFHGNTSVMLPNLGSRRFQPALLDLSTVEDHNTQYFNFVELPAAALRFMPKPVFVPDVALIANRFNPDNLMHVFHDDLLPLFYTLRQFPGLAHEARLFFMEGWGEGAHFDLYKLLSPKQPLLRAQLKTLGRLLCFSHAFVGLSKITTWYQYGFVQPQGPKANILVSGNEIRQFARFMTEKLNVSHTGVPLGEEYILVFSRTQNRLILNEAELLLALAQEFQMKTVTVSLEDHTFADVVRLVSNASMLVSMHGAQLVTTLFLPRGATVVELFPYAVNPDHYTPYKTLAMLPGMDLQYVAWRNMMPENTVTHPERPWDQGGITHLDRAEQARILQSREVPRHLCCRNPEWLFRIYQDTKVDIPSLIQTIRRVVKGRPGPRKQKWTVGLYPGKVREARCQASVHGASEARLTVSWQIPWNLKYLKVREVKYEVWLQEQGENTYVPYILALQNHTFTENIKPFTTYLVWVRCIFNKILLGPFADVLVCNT
Description: glycosyl transfer, gel filtration and NMR of product. Format: biochemical. On the technique in general: SEC sorts molecules by how far they enter the pores of the column.

In the next assay the target is T2, B3GALNT2dTM (Homo sapiens, UniProt Q8NCR0).
T2 sequence (Q8NCR0 24-500 limits assumed): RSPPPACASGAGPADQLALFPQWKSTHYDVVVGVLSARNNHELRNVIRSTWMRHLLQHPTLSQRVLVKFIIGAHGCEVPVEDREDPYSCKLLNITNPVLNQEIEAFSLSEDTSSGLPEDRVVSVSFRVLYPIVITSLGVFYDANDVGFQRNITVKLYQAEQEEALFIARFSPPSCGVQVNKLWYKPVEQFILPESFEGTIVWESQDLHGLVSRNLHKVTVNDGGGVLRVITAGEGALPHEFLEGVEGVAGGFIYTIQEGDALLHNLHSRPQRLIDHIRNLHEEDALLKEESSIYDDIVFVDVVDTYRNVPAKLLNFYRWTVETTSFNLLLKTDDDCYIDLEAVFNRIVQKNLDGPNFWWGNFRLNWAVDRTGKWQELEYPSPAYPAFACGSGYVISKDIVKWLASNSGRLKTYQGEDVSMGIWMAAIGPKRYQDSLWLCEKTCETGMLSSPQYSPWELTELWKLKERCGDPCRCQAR
Description: glycosyl transfer, MALDI-TOF/MS. Format: biochemical. The settings on record: donor; acceptor GlcNAc-β4-Man-O-peptide.

Regarding `Cc1cc(=O)oc2cc(O[C@H]3O[C@H](CO)[C@@H](O)[C@H](O)[C@@H]3O)ccc12` [Man-α-MU, 4-methylumbelliferyl-α-D-mannoside], on GTDC2dTM (acceptor, donor UDP-GlcNAc), the “glycosyl transfer, gel filtration and NMR of product” value was “conducted the transfer assay using fluorescently labeled mannoside (4-methylumbelliferyl-α-D-mannoside; Man-α-MU) as the acceptor”.

With `CC(=O)N[C@H]1[C@@H](OP(=O)(O)OP(=O)(O)OC[C@H]2O[C@@H](n3ccc(=O)[nH]c3=O)[C@H](O)[C@@H]2O)O[C@H](CO)[C@H](O)[C@@H]1O` [UDP-GalNAc], the “glycosyl transfer, MALDI-TOF/MS” value on B3GALNT2dTM was “incubated this protein with UDPGalNAc and the GlcNAc-β4-Man-O-peptide produced by the GTDC2dTM reaction”.

Turning to `CC(=O)N[C@H]1[C@@H](OP(=O)(O)OP(=O)(O)OC[C@H]2O[C@@H](n3ccc(=O)[nH]c3=O)[C@H](O)[C@@H]2O)O[C@H](CO)[C@@H](O)[C@@H]1O` [UDP-GlcNAc], the “glycosyl transfer, gel filtration and NMR of product” value at GTDC2dTM (donor, acceptor Man-α-MU) was “Reactant of the GTDC2dTM assay using Man-α-MU and UDP-GlcNAc was separated”.
